# Assays:
# in vitro = conditions: mouse, microsomes
# [1] = ref [2]; cited from earlier work
# [2] = Stability of DT3-F2 in microsomes over 60 min, normal phase LC-fluorescence; format: in vitro ADME, mouse; conditions: 37 °C, no NADPH, fluorescence detection
# [3] = format: in vitro ADME, mouse; conditions: 1 μM, 37 °C
# [4] = Chemical stability in 15% aqueous NaOH; format: physicochemical; conditions: 30 min, data not shown
# [5] = Metabolic stability in mouse liver microsomes with or without NADPH
# [6] = mouse, 1 μM, pH 7.4
# [7] = Reactivity of model compound 3 with nucleophiles; format: physicochemical
# [8] = pH 7.4, % remaining at 30 min with NADPH
# [9] = pH 7.4, % remaining at 30 min without NADPH
smiles,measurement,setting,value
CC(C)NCC(O)COc1cccc2ccccc12 (stereo not drawn) [Propranolol],half-life at 1 μM,in vitro; pH 7.4,0.417 ± 0.16 h
same,"remaining at 0.5 h, 1 μM",in vitro; [8],14.5 ± 10.4%
same,"remaining at 0.5 h, 1 μM",in vitro; [9],107 ± 8.9%
CC(C)=CCC/C(C)=C/CC/C(C)=C/CC[C@]1(C)CCc2cc(O)c(C)c(C)c2O1 [γ-tocotrienol],Plasma elimination half-life,[1],short
"C/C(=C\CC/C(C)=C/CC[C@]1(C)CCc2cc(O)cc(C)c2O1)CCC=C(CF)CF [DT3-F2 (1), (R)-2-((3E,7E)-13-Fluoro-12-(fluoromethyl)-4,8-dimethyltrideca-3,7,11-trien-1-yl)-2,8-dimethylchroman-6-ol]",Parent peak after incubation in mouse liver microsomes,[2],no longer detectable
same,Decrease of compound after incubation with active mouse liver microsomes,"[3]; 10 min, microsomes + buffer, no NADPH",~ 50%
same,"Degradation with mouse liver microsomes + NADPH, compared with microsomes alone","[3]; up to 10 min, NADPH present",More degradation
same,Stability in buffer (PBS) alone,"[3]; up to 10 min, PBS",stable
same,Stability when stirred in 15% aqueous NaOH,[4],remained intact
same,Degradation in mouse liver microsomes in the presence of NADPH (in words),"[5]; with NADPH, 30 min",exhausted (below detection limit)
same,Degradation in mouse liver microsomes in the absence of NADPH (in words),"[5]; without NADPH, 30 min",exhausted (below detection limit)
CC(C)=CCC/C(C)=C/CC/C(C)=C/CC[C@]1(C)CCc2cc(O)cc(C)c2O1 [δ-Tocotrienol],"remaining at 0.5 h, 1 μM",in vitro; [8],63.7 ± 6.7%
same,"remaining at 0.5 h, 1 μM",in vitro; [9],100 ± 6.6%
same,half-life at 1 μM,"[5]; mouse, microsomes, pH 7.4",1.8 ± 0.287 h
same,Plasma elimination half-life,[1],short
same,"Clin,u",[6],5240 ± 819.7 µL/min/mg
"C/C(=C\CS(=O)(=O)c1ccccc1)CCC=C(CF)CF [compound 3, (E)-((8-Fluoro-7-(fluoromethyl)-3-methylocta-2,6-dien-1-yl)sulfonyl) benzene]",Reaction with morpholine in HBD solvents,"[7]; hydrogen-bond donor solvents, 70 °C, Figure S3",able to react
same,Reaction with N-acetyl cysteine (NAC),"[7]; nucleophilic sulfide NAC, Figure S2",No reaction
